The test system of assay [1] is first-instar larvae of Pseudaletia Separata. In words: Test Example 2: treatment of the foot of rice seedlings, control rate against Pseudaletia Separata larvae. In kind it is in vivo. The conditions noted are these: rice seedling foot treated with 5 ml, 3 days after release. The protocol:
An aqueous solution of the compound I prepared by dissolving the compound I in water was appropriately mixed with a chemical solution of fipronil prepared by diluting Fipronil (Prince Flowable: manufactured by BASF Agro, Ltd.) with water to prepare a mixed chemical solution for test of the compound I and fipronil with a predetermined concentration. The foot of a rice seedling (2 weeks after germination) cultivated in a 90-ml plastic cup using cultivation soil was treated with 5 ml of the mixed chemical solution for test. After 3 days, 30 of first-instar larvae of Pseudaletia Separata were released per plant. After 3 days, the number of surviving larvae was counted and the control rate was calculated using the equation A.
(§1) For comparison, the test was conducted in the same manner using an aqueous solution for test having a predetermined concentration of the compound I prepared by diluting an aqueous solution of the compound I with water, and a chemical solution for test having a predetermined concentration of fipronil prepared by diluting a chemical solution of fipronil with water, respectively.
(§2) Control Rate=100×(1−[(Ts/30)/(Cs/30)]) “Equation A” where Ts and Cs denote the number of surviving larvae in the treatment group and the non-treatment group, respectively. When the control rate is less than 0 (Ts>Cs), it is represented by 0.

Assay [2] has as its system first-instar larvae of Nilaparvata lugens. In words: Test Example 3: rice seed immersion, control rate against Nilaparvata lugens larvae. The conditions noted are these: rice seeds immersed 24 hours at 30° C., 7 days after release. In kind it is in vivo.
From the text: as §2
An aqueous solution of the compound I prepared by dissolving the compound I in water was appropriately mixed with a chemical solution of fipronil prepared by diluting fipronil (Prince Flowable: manufactured by BASF Agro, Ltd.) with water to prepare a mixed chemical solution for test of the compound I and fipronil with a predetermined concentration. In 40 ml of the mixed chemical solution for test, 100 of rice seeds were immersed and allowed to stand at 30° C. for 24 hours, and then each of the 15 seeds were sown in cultivation soil filled in a 90-ml plastic cup. Eleven (11) days after the sowing, 30 of first-instar larvae of Nilaparvata lugens were released on seedlings germinated from the rice seeds. After 7 days, the number of the surviving larvae was counted and the control rate was calculated using the equation A in the same manner as in Example 2.
as §1

On to `O=C(O)CCC(=O)NCCc1ccccc1` [Compound I, 4-oxo-4-[(2-phenylethyl)amino]-butyric acid], for which the Control rate in assay [1] (Compound I 10 ppm singly (Fipronil 0 ppm)) is recorded as 0%; in assay [1] (Compound I 30 ppm singly (Fipronil 0 ppm)), 0%; in assay [1] (Compound I 100 ppm singly (Fipronil 0 ppm)) it was 0%; in assay [2] (Compound I 50 ppm singly (Fipronil 0 ppm)) it was 11%; in assay [2] (Compound I 200 ppm singly (Fipronil 0 ppm)) it was 21%.
On to `N#Cc1nn(-c2c(Cl)cc(C(F)(F)F)cc2Cl)c(N)c1[S+]([O-])C(F)(F)F` (stereo not drawn) [Fipronil, 5-amino-1-(2,6-dichloro-α,α,α-trifluoro-p-tolyl)-4-trifluoromethylsulfinyl pyrazole-3-carbonitrile, reference compound], for which the Control rate in assay [1] (Fipronil 10 ppm singly (Compound I 0 ppm)) came to 23%; in assay [1] (Fipronil 30 ppm singly (Compound I 0 ppm)) it was 41%; in assay [1] (Fipronil 100 ppm singly (Compound I 0 ppm)) it was 68%; in assay [2] (Fipronil 3.1 ppm singly (Compound I 0 ppm)), 50%.

For the origin of these results see patent US8367583B2, “Composition and method for controlling pests” (Sumitomo Chemical Company, Limited, priority 2009, dated 2013).
